± gives the uncertainty stated by the source.
Assay: xn = mol fraction of the nth substance listed

BrCCBr + Cc1cccc(C)c1
101.33 kPa
Settings	viscosity [mPa·s]
298.15 K, x1 = 0.1391	0.6538 ± 0.0082
298.15 K, x1 = 0.269	0.7069 ± 0.0087
298.15 K, x1 = 0.3835	0.8095 ± 0.0099
298.15 K, x1 = 0.4852	0.8843 ± 0.011
298.15 K, x1 = 0.5776	1.002 ± 0.012
298.15 K, x1 = 0.6789	1.064 ± 0.013
298.15 K, x1 = 0.7684	1.191 ± 0.014
298.15 K, x1 = 0.8458	1.307 ± 0.015
298.15 K, x1 = 0.9257	1.447 ± 0.017
308.15 K, x1 = 0.1463	0.587 ± 0.0074
308.15 K, x1 = 0.2621	0.6362 ± 0.0079
308.15 K, x1 = 0.3771	0.7044 ± 0.0086
308.15 K, x1 = 0.4834	0.764 ± 0.0093
308.15 K, x1 = 0.5853	0.8526 ± 0.01
308.15 K, x1 = 0.6796	0.9345 ± 0.011
308.15 K, x1 = 0.7697	1.018 ± 0.012
308.15 K, x1 = 0.8516	1.143 ± 0.013
308.15 K, x1 = 0.9254	1.259 ± 0.015

Brc1ccccc1 + Cc1cccc(C)c1
101 kPa
Settings	viscosity [mPa·s]
293.15 K, x1 = 0.112	0.626 ± 0.011
293.15 K, x1 = 0.2214	0.677 ± 0.012
293.15 K, x1 = 0.3339	0.723 ± 0.013
293.15 K, x1 = 0.5406	0.818 ± 0.014
293.15 K, x1 = 0.6754	0.89 ± 0.015
293.15 K, x1 = 0.7672	0.936 ± 0.016
293.15 K, x1 = 0.848	0.978 ± 0.017
293.15 K, x1 = 0.9095	1.01 ± 0.017
298.15 K, x1 = 0.11	0.592 ± 0.011
298.15 K, x1 = 0.2179	0.635 ± 0.011
298.15 K, x1 = 0.3324	0.685 ± 0.012
298.15 K, x1 = 0.4083	0.715 ± 0.013
298.15 K, x1 = 0.5319	0.768 ± 0.013
298.15 K, x1 = 0.6412	0.819 ± 0.014
298.15 K, x1 = 0.7163	0.853 ± 0.015
298.15 K, x1 = 0.866	0.927 ± 0.016
303.15 K, x1 = 0.1106	0.555 ± 0.01
303.15 K, x1 = 0.2212	0.592 ± 0.011
303.15 K, x1 = 0.3352	0.639 ± 0.012
303.15 K, x1 = 0.414	0.67 ± 0.012
303.15 K, x1 = 0.5251	0.712 ± 0.013
303.15 K, x1 = 0.6553	0.767 ± 0.013
303.15 K, x1 = 0.765	0.815 ± 0.014
303.15 K, x1 = 0.8807	0.866 ± 0.015

BrCCBr + Cc1ccccc1
101.33 kPa
Settings	viscosity [mPa·s]
298.15 K, x1 = 0.1229	0.6433 ± 0.0081
298.15 K, x1 = 0.2578	0.6736 ± 0.0084
298.15 K, x1 = 0.348	0.7383 ± 0.0091
298.15 K, x1 = 0.4549	0.8563 ± 0.01
298.15 K, x1 = 0.5548	0.9001 ± 0.011
298.15 K, x1 = 0.6537	1.015 ± 0.012
298.15 K, x1 = 0.746	1.105 ± 0.013
298.15 K, x1 = 0.8331	1.268 ± 0.015
298.15 K, x1 = 0.9171	1.381 ± 0.016
308.15 K, x1 = 0.1176	0.5499 ± 0.007
308.15 K, x1 = 0.2377	0.6 ± 0.0075
308.15 K, x1 = 0.3568	0.6572 ± 0.0081
308.15 K, x1 = 0.4489	0.7283 ± 0.0089
308.15 K, x1 = 0.5524	0.8275 ± 0.01
308.15 K, x1 = 0.652	0.9069 ± 0.011
308.15 K, x1 = 0.7416	0.9937 ± 0.012
308.15 K, x1 = 0.8319	1.111 ± 0.013
308.15 K, x1 = 0.9144	1.233 ± 0.014

Brc1ccccc1 + Cc1ccccc1
101 kPa
Settings	viscosity [mPa·s]
293.15 K, x2 = 0.2	1.001 ± 0.017
293.15 K, x2 = 0.4	0.885 ± 0.015
293.15 K, x2 = 0.6	0.778 ± 0.013
293.15 K, x2 = 0.8	0.677 ± 0.012
298.15 K, x1 = 0.129	0.613 ± 0.005
298.15 K, x1 = 0.267	0.672 ± 0.006
298.15 K, x1 = 0.379	0.72 ± 0.006
298.15 K, x1 = 0.505	0.786 ± 0.007
298.15 K, x1 = 0.629	0.851 ± 0.007
298.15 K, x1 = 0.736	0.91 ± 0.008
298.15 K, x1 = 0.853	0.981 ± 0.008
298.15 K, x1 = 0.882	0.996 ± 0.009
298.15 K, x2 = 0.53	0.75 ± 0.008
298.15 K, x2 = 0.623	0.7 ± 0.007
298.15 K, x2 = 0.72	0.658 ± 0.007
298.15 K, x2 = 0.869	0.603 ± 0.006
303.15 K, x1 = 0.101	0.581 ± 0.01
303.15 K, x1 = 0.129	0.574 ± 0.005
303.15 K, x1 = 0.202	0.635 ± 0.011
303.15 K, x1 = 0.267	0.626 ± 0.006
303.15 K, x1 = 0.303	0.689 ± 0.012
303.15 K, x1 = 0.379	0.674 ± 0.006
303.15 K, x1 = 0.403	0.74 ± 0.013
303.15 K, x1 = 0.503	0.788 ± 0.013
303.15 K, x1 = 0.505	0.729 ± 0.006
303.15 K, x1 = 0.603	0.831 ± 0.014
303.15 K, x1 = 0.629	0.792 ± 0.007
303.15 K, x1 = 0.703	0.877 ± 0.015
303.15 K, x1 = 0.736	0.857 ± 0.007
303.15 K, x1 = 0.802	0.918 ± 0.015
303.15 K, x1 = 0.853	0.92 ± 0.008
303.15 K, x1 = 0.882	0.938 ± 0.008
303.15 K, x1 = 0.901	0.957 ± 0.016
313.15 K, x2 = 0.2	0.786 ± 0.014
313.15 K, x2 = 0.4	0.697 ± 0.012
313.15 K, x2 = 0.6	0.614 ± 0.011
313.15 K, x2 = 0.8	0.537 ± 0.009

— the CheMixHub viscosity set
